Test results published in ChEMBL document CHEMBL3400138, “Synthesis of 3-azabicyclo[3.2.2]nonanes and their antiprotozoal activities” (Bioorg Med Chem Lett, 2015).
pIC50: −log10 of the molar value.

Assays:
[1] = system: L6; assay: Cytotoxicity against rat L6 cells after 72 hrs by alamar blue assay; format: cell-based; conditions: L6, 72 h
[2] = system: Plasmodium falciparum; assay: Antiplasmodial activity against chloroquine and pyrimethamine resistant Plasmodium falciparum K1 infected in human red blood cells assessed as reduction in parasite viability after 48 hrs by [3H]-hypoxanthine incorporation assay; format: functional, organism-based
[3] = Selectivity index, ratio of CC50 for rat L6 cells to IC50 for chloroquine and pyrimethamine resistant Plasmodium falciparum K1; format: functional
[4] = system: Trypanosoma brucei rhodesiense; assay: Antitrypanosomal activity against Trypanosoma brucei rhodesiense STIB900 bloodstream forms after 72 hrs by alamar blue assay; format: functional, organism-based; conditions: STIB900, 72 h
[5] = Selectivity index, ratio of CC50 for rat L6 cells to IC50 for Trypanosoma brucei rhodesiense STIB900; format: functional
[6] = system: Plasmodium berghei; assay: Growth inhibition of Plasmodium berghei infected in mouse; format: functional
[7] = system: Plasmodium berghei; assay: Antiplasmodial activity against GFP-transfected Plasmodium berghei ANKA infected in NMRI mouse assessed as reduction in parasitemia at 50 mg/kg, ip administered 4, 24, 48 and 72 hrs post infection by FACS analysis; format: functional; conditions: route intraperitoneal
[8] = system: Plasmodium berghei; assay: Antiplasmodial activity against GFP-transfected Plasmodium berghei ANKA infected in NMRI mouse assessed as mean survival day at 50 mg/kg, ip administered 4, 24, 48 and 72 hrs post infection (reference value: 4 to 6 days); format: functional; conditions: route intraperitoneal

## Cl.O=C1NCC2(N3CCOCC3)CC(c3ccccc3)C1C(c1ccccc1)C2 (configuration not stated)
[1]
  pIC50: < 3.62
[2]
  pIC50: < 4.88
[3]
  Ratio IC50: 18
[4]
  pIC50: 3.89
[5]
  Ratio IC50: 1.9

## CN(C)C12CNCC(C(c3ccc(Cl)cc3)C1)C(c1ccc(Cl)cc1)C2.Cl (configuration not stated)
[1]
  pIC50: 5.05
[2]
  pIC50: 6.11
[3]
  Ratio IC50: 11.63
[4]
  pIC50: 6.47
[5]
  Ratio IC50: 26.4

## CN(C)C12CC(=O)NC(C(c3ccccc3)C1)C(c1ccccc1)C2.Cl (racemic)
[5]
  Ratio IC50: 7.1

## Cl.O=C1CC2(N3CCOCC3)CC(c3ccccc3)C(N1)C(c1ccccc1)C2 (racemic)
[1]
  pIC50: < 3.62
[2]
  pIC50: < 4.88
[3]
  Ratio IC50: 18
[4]
  pIC50: 3.86
[5]
  Ratio IC50: 1.7

## Cl.O=C1CC2(N3CCCC3)CC(c3ccccc3)C(N1)C(c1ccccc1)C2 (racemic)
[3]
  Ratio IC50: 28.5
[5]
  Ratio IC50: 6.6

## Cl.O=C1CC2(N3CCCCC3)CC(c3ccccc3)C(N1)C(c1ccccc1)C2 (racemic)
[5]
  Ratio IC50: 6.4

## CN(C)C12CCNC(C(c3ccccc3)C1)C(c1ccccc1)C2.Cl (racemic)
[6]
  growth inhibition (GI): 35%
[5]
  Ratio IC50: 181
[7]
  inhibition in vivo at 50 mg/kg: 35.1%
[8]
  MSD: 6.3 days

## Cl.c1ccc(C2CC3(N4CCOCC4)CCNC2C(c2ccccc2)C3)cc1 (racemic)
[1]
  pIC50: < 3.68
[2]
  pIC50: 5.16
[3]
  Ratio IC50: 30.22
[4]
  pIC50: 5.03
[5]
  Ratio IC50: 21.9

## Cl.c1ccc(C2CC3(N4CCCC4)CCNC2C(c2ccccc2)C3)cc1 (racemic)
[5]
  Ratio IC50: 103

## Cl.c1ccc(C2CC3(N4CCCCC4)CCNC2C(c2ccccc2)C3)cc1 (racemic)
[5]
  Ratio IC50: 13.7

## CN(C)C12CCNC(C(c3ccc(Cl)cc3)C1)C(c1ccc(Cl)cc1)C2.Cl (racemic)
[5]
  Ratio IC50: 143

## Cl.Clc1ccc(C2CC3(N4CCCC4)CCNC2C(c2ccc(Cl)cc2)C3)cc1 (racemic)
[5]
  Ratio IC50: 152
